Common to all, as to assay type: in vivo
One data set has as its system wheat. Put plainly: Test Example 4: effect on crop by soil treatment (symbol e). As to conditions: for e: wheat, effect grade on crop: 320 g/ha. The gist of the method:
(§1)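 Crop seed is sown in spots together with several weed species in a box of sterilized diluvial soil. It is covered by about 1.5 cm of soil and kept in a greenhouse held between 25° C. and 30° C.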

Data set [1] concerns soybean. Kind of data set: Test Example 4: effect on crop by soil treatment (symbol d). To be noted: for d: soybean, effect grade on crop: 320 g/ha. The gist of the method:
as §1

For data set [2], the system named is Veronica persica. Kind of data set: Test Example 4: herbicidal effect by soil treatment (symbol R). As to conditions: for R: Veronica persica, herbicidal effect grade: 320 g/ha. The method in brief: (§2)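 Seeds were sown in sterilized diluvial soil, covered with about 1.5 cm of soil, and the soil surface was sprayed with a water-diluted emulsion of the compound at a predetermined rate. Plants grew in a greenhouse at 25° C. to 30° C.; effects were scored visually 3 weeks after application.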

For the next data set, the system named is Galium spurium. Put plainly: Test Example 4: herbicidal effect by soil treatment (symbol Q). To be noted: for Q: Galium spurium, herbicidal effect grade: 320 g/ha. The method in brief: as §2
For the next data set, the system named is Cyperus difformis. Put plainly: Test Example 3: herbicidal effect by foliage application, Wagner pot (symbol E). To be noted: application herbicide amount 320 g/ha. The method in brief: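 Rating at 3 weeks post-spray, by defined criteria. Treatment: emulsion diluted with water to a predetermined amount, applied evenly to foliage of 14-day-old plants raised in alluvial soil flooded 0.1–0.5 cm deep at 25–30 °C, rice co-sown.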

In data set [3] the test system is Lolium multiflorum Lam. Kind of data set: Test Example 4: herbicidal effect by soil treatment (symbol K). As to conditions: for K: Lolium multiflorum Lam., herbicidal effect grade: 320 g/ha. The method in brief: as §2
The subject of the next data set is corn. Put plainly: Test Example 4: effect on crop by soil treatment (symbol c). To be noted: for c: corn, effect grade on crop: 320 g/ha. The gist of the method:
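Plants are raised in a greenhouse (25° C. to 30° C.) from spot-sown seed, which sits under about 1.5 cm of sterilized diluvial soil in a box shared with weed species.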

Another data set concerns Apera spica-venti. Kind of data set: Test Example 4: herbicidal effect by soil treatment (symbol L). As to conditions: for L: Apera spica-venti, herbicidal effect grade: 320 g/ha. The gist of the method: as §2
Data set [4] relates to Echinochloa oryzacola Vasing. Put plainly: Test Example 1: herbicidal activity, application before weed generation in submerged conditions (symbol A). As to conditions: application herbicide amount 320 g/ha. The method in brief: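 In a flooded pot test with alluvial soil, the emulsion-formulated compound was diluted with water to a predetermined amount and applied to the floodwater immediately on the sowing day. Pots were held in a greenhouse at 25–30 °C for 3 weeks before each weed was rated.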

The test system of another data set is Amaranthus retroflexus. Put plainly: Test Example 5: herbicidal effect by foliage application, plastic box (symbol N). To be noted: 320 g/ha, 3 weeks after application. The method in brief: (§3)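 Herbicide, formulated as an emulsion and diluted in water, is sprayed onto the aerial parts of 14-day seedlings. These were grown at 25° C. to 30° C. in sterilized diluvial soil; effects are graded after 3 weeks.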

Data set [5] deals with Alopecurus myosuroides. Kind of data set: Test Example 4: herbicidal effect by soil treatment (symbol J). As to conditions: for J: Alopecurus myosuroides, herbicidal effect grade: 320 g/ha. The gist of the method: as §2
The subject of data set [6] is Setaria viridis. Kind of data set: Test Example 4: herbicidal effect by soil treatment (symbol G). As to conditions: for G: Setaria viridis, herbicidal effect grade: 320 g/ha. The gist of the method: as §2
The test system of another data set is rice. Put plainly: Test Example 4: effect on crop by soil treatment (symbol b). As to conditions: for b: directly sowed rice plant, effect grade on crop: 320 g/ha. The gist of the method:
as §1

Data set [7] has as its system Lolium multiflorum Lam. Put plainly: Test Example 5: herbicidal effect by foliage application, plastic box (symbol K). As to conditions: 320 g/ha, 3 weeks after application. The gist of the method: as §3
Data set [8] concerns Veronica persica. Kind of data set: Test Example 5: herbicidal effect by foliage application, plastic box (symbol R). To be noted: 320 g/ha, 3 weeks after application. The method in brief: as §3
Data set [9] deals with soybean. Kind of data set: Test Example 5: effect on crop by foliage application, plastic box (symbol d). To be noted: 320 g/ha, 3 weeks after application. The method in brief: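 Diluvial soil, sterilized and boxed (21 × 13 × 7 cm), received spot-sown seed covered by about 1.5 cm soil; plants were then greenhouse-grown at 25–30° C.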
The test system of another data set is Avena fatua. Kind of data set: Test Example 5: herbicidal effect by foliage application, plastic box (symbol I). To be noted: 320 g/ha, 3 weeks after application. The gist of the method:
as §3

Data set [10] has as its system Alopecurus myosuroides. Put plainly: Test Example 5: herbicidal effect by foliage application, plastic box (symbol J). To be noted: 320 g/ha, 3 weeks after application. The gist of the method:
as §3

In data set [11] the test system is Setaria viridis. Kind of data set: Test Example 5: herbicidal effect by foliage application, plastic box (symbol G). To be noted: 320 g/ha, 3 weeks after application. The gist of the method:
as §3

The mark [12] stands for this setting: application herbicide amount 320 g/ha.

SMILES strings stand for the structures.

As to `CC(CC1CC(O)=C(c2c(C)cc(C)cc2C)C1=O)=NOCC[S+](C)[O-]` (stereo not drawn) [1-125], the “e: wheat, effect grade on crop” value with wheat is 3 (Herbicidal ratio of 40% or higher and lower than 70%). In the data set with soybean [1], the “d: soybean, effect grade on crop” value is reported as 0 (Herbicidal ratio of 5% or lower (almost no effect)). Besides, the “R: Veronica persica, herbicidal effect grade” value in the data set with Veronica persica [2] is listed as 0 (Herbicidal ratio of 5% or lower (almost no effect)). Moreover, in the data set on Galium spurium, the “Q: Galium spurium, herbicidal effect grade” value is 0 (Herbicidal ratio of 5% or lower (almost no effect)). The “herbicidal effect on E, grade 0-5” value with Cyperus difformis is 2 (Herbicidal ratio of 20% or higher and lower than 40%). Also, the “K: Lolium multiflorum Lam., herbicidal effect grade” value with Lolium multiflorum Lam. [3] is 5 (Herbicidal ratio of 90% or more (almost completely withered)). In the data set on corn, the “c: corn, effect grade on crop” value was 2 (Herbicidal ratio of 20% or higher and lower than 40%). Besides, in the data set with Apera spica-venti, the “L: Apera spica-venti, herbicidal effect grade” value is 5 (Herbicidal ratio of 90% or more (almost completely withered)). The “Herbicidal effect grade, A: Echinochloa oryzacola Vasing.” value in data set [4] is 3 (Herbicidal ratio of 40% or higher and lower than 70%). Further, the “N: Amaranthus retroflexus, herbicidal effect (criteria 0-5)” value in the data set on Amaranthus retroflexus was 0 (Herbicidal ratio of 5% or lower (almost no effect)). For the same compound, in the data set with Alopecurus myosuroides [5], the “J: Alopecurus myosuroides, herbicidal effect grade” value is on record as 0 (Herbicidal ratio of 5% or lower (almost no effect)). Further, the “G: Setaria viridis, herbicidal effect grade” value in the data set on Setaria viridis [6] is on record as 5 (Herbicidal ratio of 90% or more (almost completely withered)). Also, in the data set with rice, the “b: directly sowed rice plant, effect grade on crop” value was 5 (Herbicidal ratio of 90% or more (almost completely withered)). Moreover, the “K: Lolium multiflorum Lam., herbicidal effect (criteria 0-5)” value with Lolium multiflorum Lam. [7] is recorded as 5 (Herbicidal ratio of 90% or more (almost completely withered)). Moreover, in the data set on Veronica persica [8], the “R: Veronica persica, herbicidal effect (criteria 0-5)” value is 2 (Herbicidal ratio of 20% or higher and lower than 40%). Further, the “d: soybean, effect on crop (criteria 0-5)” value with soybean [9] is on record as 0 (Herbicidal ratio of 5% or lower (almost no effect)). The “I: Avena fatua, herbicidal effect (criteria 0-5)” value in the data set with Avena fatua is 5 (Herbicidal ratio of 90% or more (almost completely withered)). In the data set on Alopecurus myosuroides [10], the “J: Alopecurus myosuroides, herbicidal effect (criteria 0-5)” value is given as 5 (Herbicidal ratio of 90% or more (almost completely withered)). For the same compound, the “G: Setaria viridis, herbicidal effect (criteria 0-5)” value with Setaria viridis [11] is on record as 5 (Herbicidal ratio of 90% or more (almost completely withered)).
In the case of `CC#Cc1cc(C)c(C2=C(O)CC(CC(=NOCCOC)C3CC3)C2=O)c(C)c1` (stereo not drawn) [9-021], the “Effect on crop grade, e: wheat” value with wheat (setting [12]) is 3 (Herbicidal ratio of 40% or higher and lower than 70%). Further, the “Effect on crop grade, d: soybean” value with soybean [1] (setting [12]) is given as 0 (Herbicidal ratio of 5% or lower (almost no effect)). Moreover, the “Herbicidal effect grade, R: Veronica persica” value in the data set on Veronica persica [2] (setting [12]) is 3 (Herbicidal ratio of 40% or higher and lower than 70%). In the data set on Galium spurium (setting [12]), the “Herbicidal effect grade, Q: Galium spurium” value was 0 (Herbicidal ratio of 5% or lower (almost no effect)). For the same compound, the “E herbicidal effect grade” value with Cyperus difformis (Table 24) was 5 (Herbicidal ratio of 90% or more (almost completely withered)). In the data set with Lolium multiflorum Lam. [3] (setting [12]), the “Herbicidal effect grade, K: Lolium multiflorum Lam.” value was 5 (Herbicidal ratio of 90% or more (almost completely withered)). For the same compound, the “Effect on crop grade, c: corn” value in the data set on corn (setting [12]) was 3 (Herbicidal ratio of 40% or higher and lower than 70%). In addition, the “Herbicidal effect grade, L: Apera spica-venti” value in the data set with Apera spica-venti (setting [12]) is listed as 5 (Herbicidal ratio of 90% or more (almost completely withered)). The “A (Echinochloa oryzacola Vasing.) herbicidal effect grade” value in [4] was 5 (Herbicidal ratio of 90% or more (almost completely withered)). Besides, the “N: Amaranthus retroflexus, herbicidal effect grade” value in the data set with Amaranthus retroflexus is 2 (Herbicidal ratio of 20% or higher and lower than 40%). For the same compound, the “Herbicidal effect grade, J: Alopecurus myosuroides” value with Alopecurus myosuroides [5] (setting [12]) is 5 (Herbicidal ratio of 90% or more (almost completely withered)). For the same compound, the “Herbicidal effect grade, G: Setaria viridis” value in the data set on Setaria viridis [6] (setting [12]) is 5 (Herbicidal ratio of 90% or more (almost completely withered)). Also, the “Effect on crop grade, b: directly sowed rice plant” value in the data set on rice (setting [12]) was 5 (Herbicidal ratio of 90% or more (almost completely withered)). Also, the “K: Lolium multiflorum Lam., herbicidal effect grade” value with Lolium multiflorum Lam. [7] was 5 (Herbicidal ratio of 90% or more (almost completely withered)). Moreover, in the data set with Veronica persica [8], the “R: Veronica persica, herbicidal effect grade” value was 4 (Herbicidal ratio of 70% or higher and lower than 90%). In addition, in the data set with soybean [9], the “d: soybean, effect on crop grade” value was 1 (Herbicidal ratio of 5% or higher and lower than 20%). Also, in the data set on Avena fatua, the “I: Avena fatua, herbicidal effect grade” value was 4 (Herbicidal ratio of 70% or higher and lower than 90%). Besides, the “J: Alopecurus myosuroides, herbicidal effect grade” value in the data set with Alopecurus myosuroides [10] is given as 5 (Herbicidal ratio of 90% or more (almost completely withered)). The “G: Setaria viridis, herbicidal effect grade” value with Setaria viridis [11] is listed as 5 (Herbicidal ratio of 90% or more (almost completely withered)).
On to `C=C(C)CN(CC)C(=O)OC1=C(c2c(C)cc(C)cc2C)C(=O)C(CC(C)=NOC)C1` (stereo not drawn) [1-130], for which the “e: wheat, effect grade on crop” value in the data set on wheat is 0 (Herbicidal ratio of 5% or lower (almost no effect)). In the data set on soybean [1], the “d: soybean, effect grade on crop” value is 0 (Herbicidal ratio of 5% or lower (almost no effect)). Further, in the data set with Veronica persica [2], the “R: Veronica persica, herbicidal effect grade” value was 0 (Herbicidal ratio of 5% or lower (almost no effect)). The “Q: Galium spurium, herbicidal effect grade” value with Galium spurium is 0 (Herbicidal ratio of 5% or lower (almost no effect)). Also, the “herbicidal effect on E, grade 0-5” value with Cyperus difformis is 4 (Herbicidal ratio of 70% or higher and lower than 90%). Also, in the data set with Lolium multiflorum Lam. [3], the “K: Lolium multiflorum Lam., herbicidal effect grade” value was 3 (Herbicidal ratio of 40% or higher and lower than 70%). The “c: corn, effect grade on crop” value in the data set with corn is recorded as 0 (Herbicidal ratio of 5% or lower (almost no effect)). The “L: Apera spica-venti, herbicidal effect grade” value in the data set with Apera spica-venti is 3 (Herbicidal ratio of 40% or higher and lower than 70%). For the same compound, in [4], the “Herbicidal effect grade, A: Echinochloa oryzacola Vasing.” value was 3 (Herbicidal ratio of 40% or higher and lower than 70%). The “N: Amaranthus retroflexus, herbicidal effect (criteria 0-5)” value with Amaranthus retroflexus is 0 (Herbicidal ratio of 5% or lower (almost no effect)). Moreover, the “J: Alopecurus myosuroides, herbicidal effect grade” value with Alopecurus myosuroides [5] was 3 (Herbicidal ratio of 40% or higher and lower than 70%). For the same compound, the “G: Setaria viridis, herbicidal effect grade” value with Setaria viridis [6] is 0 (Herbicidal ratio of 5% or lower (almost no effect)). For the same compound, the “b: directly sowed rice plant, effect grade on crop” value in the data set on rice is reported as 0 (Herbicidal ratio of 5% or lower (almost no effect)). In addition, the “K: Lolium multiflorum Lam., herbicidal effect (criteria 0-5)” value in the data set with Lolium multiflorum Lam. [7] was 5 (Herbicidal ratio of 90% or more (almost completely withered)). In the data set on Veronica persica [8], the “R: Veronica persica, herbicidal effect (criteria 0-5)” value is recorded as 0 (Herbicidal ratio of 5% or lower (almost no effect)). For the same compound, in the data set on soybean [9], the “d: soybean, effect on crop (criteria 0-5)” value was 1 (Herbicidal ratio of 5% or higher and lower than 20%). Further, the “I: Avena fatua, herbicidal effect (criteria 0-5)” value in the data set on Avena fatua is on record as 5 (Herbicidal ratio of 90% or more (almost completely withered)). In the data set on Alopecurus myosuroides [10], the “J: Alopecurus myosuroides, herbicidal effect (criteria 0-5)” value is 5 (Herbicidal ratio of 90% or more (almost completely withered)). Besides, in the data set on Setaria viridis [11], the “G: Setaria viridis, herbicidal effect (criteria 0-5)” value was 5 (Herbicidal ratio of 90% or more (almost completely withered)).

The values are drawn from patent publication US11000033B2, “Ketone or oxime compound, and herbicide” (NISSAN CHEMICAL CORPORATION, priority 2014, dated 2021).
